Results on 3 compounds are retold here after PMC7730961, “Discovery of Novel Dual Extracellular Regulated Protein Kinases (ERK) and Phosphoinositide 3-Kinase (PI3K) Inhibitors as a Promising Strategy for Cancer Therapy” (Molecules, 2020).

For data set [1], the system named is HCT116. The experiment in a line: Anti-proliferation assay (MTT, 72 h), HCT116. The conditions noted are these: Homo sapiens, HCT-116, HCT116 cells. It is filed as cell-based. The method, then: (§1) Human cancer cell lines HCT116 and HEC1B were cultured in media with 10% FBS (GIBCO, Invitrogen Corporation, NY, USA) at 37 °C in a 5% (v/v) CO2 humidified incubator. The logarithmic growth phase cells were seeded in a 96-well plate with a density of 1 × 10^5 cells/mL, cultured at 37 °C, 5% CO2. Until the cells were 90% confluent, the medium containing compound was added to incubate for 72 h, and then the cell viability was tested by MTT analysis. Taking the drug concentration as the abscissa and the percentage of proliferation inhibitory activity corresponding to each concentration as the ordinate, using Graphpad Prism 5 to do nonlinear regression, the IC50 value of each compound was calculated.

The target in data set [2] is PI3Kα (Homo sapiens, UniProt P42336). The experiment in a line: Enzymatic inhibition assay (ADP-Glo Plus luminescence kinase assay), PI3Kα. It is filed as biochemical. As to conditions: for inhibition at 0.1 µM: 100 nM compound. The method, then: The 50 µL reaction mixture contains 40 mM Tris-HCl, pH 7.4, 10 µM ATP, 10 mM MgCl2, 0.1 mg/mL BSA, 1 mM DTT, 0.2 ug/mL ERK 2, ERK 1, PI3Kα, PI3Kβ, PI3Kγ or PI3Kδ and 100 uM lipid substrate. All compounds were diluted in 10% DMSO and tested in 10-dose with 3-fold serial dilution starting at a concentration of 1 μM. Of the dilution, 5 µL was added to a 50 µL reaction so that the final concentration of DMSO is 1% in all of reactions. After all of the reaction mixtures were conducted at 30 °C for 40 min, the assay was performed using ADP-Glo Plus luminescence kinase assay kit. The luminescence signal and the intensity of the luminescence signal value were detected using a multi-well spectrophotometer (the MD-SpectraMax M5 multifunctional microplate reader). It was directly proportional to the […] enzyme activity. The experimental results were converted into active percentages, a dose-response curve is drawn, and the IC50 value of inhibition was calculated using […] PRISM 5 nonlinear regression.
Sequence of PI3Kα (P42336 whole entry): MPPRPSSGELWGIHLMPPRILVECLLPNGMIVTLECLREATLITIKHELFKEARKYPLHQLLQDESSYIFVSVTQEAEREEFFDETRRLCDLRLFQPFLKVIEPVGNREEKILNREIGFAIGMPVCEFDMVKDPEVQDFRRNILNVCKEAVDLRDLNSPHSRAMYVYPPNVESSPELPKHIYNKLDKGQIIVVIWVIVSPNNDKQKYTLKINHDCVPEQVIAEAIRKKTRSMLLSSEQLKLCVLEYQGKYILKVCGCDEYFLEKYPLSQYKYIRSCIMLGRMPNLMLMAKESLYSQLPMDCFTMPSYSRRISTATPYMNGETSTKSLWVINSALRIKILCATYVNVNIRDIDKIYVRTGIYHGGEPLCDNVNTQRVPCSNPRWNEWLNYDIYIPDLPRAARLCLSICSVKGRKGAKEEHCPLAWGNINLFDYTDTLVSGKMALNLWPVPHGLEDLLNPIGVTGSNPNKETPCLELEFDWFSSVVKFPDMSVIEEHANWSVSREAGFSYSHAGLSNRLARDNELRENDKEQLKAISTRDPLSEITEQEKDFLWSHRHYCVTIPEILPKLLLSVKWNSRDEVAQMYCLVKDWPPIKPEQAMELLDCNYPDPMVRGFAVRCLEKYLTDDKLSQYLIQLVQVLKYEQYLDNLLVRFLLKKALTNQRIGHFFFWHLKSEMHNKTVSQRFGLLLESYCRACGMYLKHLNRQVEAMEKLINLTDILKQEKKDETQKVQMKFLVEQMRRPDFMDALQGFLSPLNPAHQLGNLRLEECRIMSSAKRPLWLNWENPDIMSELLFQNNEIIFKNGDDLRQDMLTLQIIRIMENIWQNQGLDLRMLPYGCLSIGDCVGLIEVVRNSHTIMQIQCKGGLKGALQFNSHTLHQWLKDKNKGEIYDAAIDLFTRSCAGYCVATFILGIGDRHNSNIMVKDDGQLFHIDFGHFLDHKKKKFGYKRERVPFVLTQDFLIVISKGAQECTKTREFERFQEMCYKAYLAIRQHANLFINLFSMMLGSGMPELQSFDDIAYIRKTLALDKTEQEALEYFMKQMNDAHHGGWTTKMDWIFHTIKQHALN
Sequence of PI3Kα (P27986 whole entry partner): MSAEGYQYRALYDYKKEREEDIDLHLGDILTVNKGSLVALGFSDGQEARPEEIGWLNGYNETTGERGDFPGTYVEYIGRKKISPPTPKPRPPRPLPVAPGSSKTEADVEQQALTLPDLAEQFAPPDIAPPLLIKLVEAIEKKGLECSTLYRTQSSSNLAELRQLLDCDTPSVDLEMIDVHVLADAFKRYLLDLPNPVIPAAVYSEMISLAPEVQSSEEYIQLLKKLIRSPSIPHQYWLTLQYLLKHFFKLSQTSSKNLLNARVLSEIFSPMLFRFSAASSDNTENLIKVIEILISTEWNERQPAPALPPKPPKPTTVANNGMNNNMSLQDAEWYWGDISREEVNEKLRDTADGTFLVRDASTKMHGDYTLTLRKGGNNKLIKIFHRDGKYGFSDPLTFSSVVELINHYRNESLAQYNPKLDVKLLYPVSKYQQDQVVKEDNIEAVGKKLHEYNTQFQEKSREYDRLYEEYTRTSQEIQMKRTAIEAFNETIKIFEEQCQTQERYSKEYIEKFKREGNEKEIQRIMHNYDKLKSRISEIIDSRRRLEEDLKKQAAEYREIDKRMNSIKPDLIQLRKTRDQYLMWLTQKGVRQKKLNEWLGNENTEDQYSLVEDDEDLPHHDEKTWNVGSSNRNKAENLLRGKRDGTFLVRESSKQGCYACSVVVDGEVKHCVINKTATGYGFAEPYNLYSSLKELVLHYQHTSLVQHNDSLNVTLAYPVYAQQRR
On the technique in general: ADP-Glo first removes unused ATP, then detects ADP through luciferase.

Data set [3] can be described thus: Solubility. It is filed as physicochemical. As to conditions: relative to parent after introducing a hydrophilic group at the pyrazole NH.
Data set [4] deals with ERK 2 (Homo sapiens, UniProt P28482). The experiment in a line: Enzymatic inhibition assay (ADP-Glo Plus luminescence kinase assay), ERK2. It is filed as biochemical. The conditions noted are these: for inhibition at 0.1 µM: 100 nM compound. The method, then:
All compounds were diluted in 10% DMSO and tested in 10-dose with 3-fold serial dilution starting at a concentration of 1 μM. Of the dilution, 5 µL was added to a 50 µL reaction so that the final concentration of DMSO is 1% in all of reactions. After all of the reaction mixtures were conducted at 30 °C for 40 min, the assay was performed using ADP-Glo Plus luminescence kinase assay kit. The luminescence signal and the intensity of the luminescence signal value were detected using a multi-well spectrophotometer (the MD-SpectraMax M5 multifunctional microplate reader). It was directly proportional to the inhibition of enzyme activity.

Data set [5] deals with HEC1B. The experiment in a line: Anti-proliferation assay (MTT, 72 h), HEC1B. It is filed as cell-based. As to conditions: Homo sapiens, HEC-1B, HEC1B cells. The method, then: as §1
The subject of data set [6] is HCT-116 xenograft. Nature of the data set: In vivo antitumor activity, HCT-116 xenograft in nude mice. Set-up: species or system Balb/c-nude mice. The conditions noted are these: intraperitoneal once daily, 21 days, 32d 5 mg/kg, BVD-523 5 mg/kg, GDC-0980 1 mg/kg. The method, then: Male five-week-old Balb/c-nude mice (18–20 g) were injected subcutaneously with HCT-116 cells (5 × 10^7/mL cells suspended in Matrigel Matrix). […] All mice were administered by intraperitoneal q.d. The tumor volumes were measured using electronic digital calipers every 3 days and were calculated as 1/2 length × width × width.

Data set [7] can be described thus: In vivo pharmacokinetic study in SD rats. The conditions noted are these: for MRT last: read-out: MRT0–t. More on the design: species or system Sprague Dawley rats. The method, then: The pharmacokinetic experiment was conducted by using 180–220 g male Sprague Dawley rats (purchased from Weitong Lihua Experimental Animal Co., Ltd., Beijing, China). The experimental animals were raised in a well-ventilated, air-conditioned standard animal room where the temperature was maintained at 20–25 °C, the humidity was maintained at 40–70%, and the light and dark were rotated for 12 h each. After about 5 days of normal feeding, rats with good physical signs can enter this experiment after veterinary inspection. All rats were fasted for 12 h before the start of the animal experiment. The 32d was dissolved in a mixture of 40% DMSO + 40% PEG400 + 20% 5% glucose injection at a concentration of 1 mg/mL (1 mg/kg). The 32d was administered to the […] by p.o. (0.2 mg/mL, 10 mg/kg), and blood samples (about 0.25 mL) were collected from the posterior orbital venous plexus after different time points (i.v.: 2 min, 15 min, 30 min, 1 h, 2 h, 4 h, 6 h, 8 h, and 12 h; po: 5 min, 15 min, 30 min, 1 h, 2 h, 4 h, 6 h, 8 h, 12 h, and 24 h) after dosing, with three […] for each time point. The whole plasma samples were kept frozen at −20 °C until LC/MS/MS analysis after centrifugation. WinNolin 8.2 software was used to calculate pharmacokinetic parameters, and GraphPad Prism 8.0 was used to draw plasma concentration-time curves.

Data set [8] is described as follows: In vitro pharmacokinetic study, oxidation metabolism in human liver microsomes. It is filed as in vitro ADME. As to conditions: n = 3. The method, then:
The pharmacokinetic experiment was conducted by using human liver microsome (purchased from Research Institute for Liver Diseases (Shanghai) Co., Ltd., Shanghai, China). The reaction mixture contained 100 μL PBS, 40 μL liver microsome and 20 μL dilution of compound 32d. After the reaction mixtures were preconducted at 37 °C for 5 min, 40 μL NADPH solution was added to start pharmacokinetic reaction, and samples were collected at different time points (5 min, 10 min, 15 min, 30 min and 45 min). Then, 100 μL of ethyl acetate was added to stop the reaction. The whole samples were added in 10 μL of an internal standard (Phenacetin) to shake for 10 min and centrifuge at 10,000 rpm for 10 min and then taken out 300 μL of supernatant.for LC/MS/MS analysis. WinNolin 8.2 software was used to calculate pharmacokinetic parameters, and GraphPad Prism 8.0 was used to draw concentration-time curves.
In general terms: Liver microsomes are a subcellular fraction often used to study metabolism.

Where [9] appears, read: male, Sprague-Dawley, rat, plasma, iv, i.v. 1 mg/kg.
The mark [10] stands for this setting: male, Sprague-Dawley, rat, plasma, po, p.o. 10 mg/kg.

Read-outs that look alike come from different tables or passages of the source.

Sequence of ERK 2 (P28482 whole entry): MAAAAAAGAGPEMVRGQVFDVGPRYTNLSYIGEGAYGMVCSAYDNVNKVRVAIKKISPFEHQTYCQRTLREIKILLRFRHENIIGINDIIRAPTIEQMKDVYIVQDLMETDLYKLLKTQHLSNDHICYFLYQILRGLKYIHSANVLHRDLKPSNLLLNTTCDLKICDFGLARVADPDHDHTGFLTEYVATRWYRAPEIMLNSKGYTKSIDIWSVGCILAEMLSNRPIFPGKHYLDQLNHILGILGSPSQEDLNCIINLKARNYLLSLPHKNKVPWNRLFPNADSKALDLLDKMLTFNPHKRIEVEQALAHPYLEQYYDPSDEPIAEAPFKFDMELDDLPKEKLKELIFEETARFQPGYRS

Usually IC50 stands for the midpoint of a concentration-inhibition curve. Usually inhibition stands for the relative decrease from the control value, in per cent. As to `O=C(Nc1ncc2ncc(-c3cnn(CCN4CCOCC4)c3)cc2n1)NC1CCCC1` [32l, 1-Cyclopentyl-3-(7-(1-(2-morpholinoethyl)-1H-pyrazol-4-yl)pyrido[3,2-d]pyrimidin-2-yl)urea], the IC50 in data set [1] worked out at 1760 nM; in data set [5], 3630 nM. Also, the values for the inhibition at 0.1 µM in data set [2] and in data set [4] were 63.8% and 21.4%, respectively. Further, in data set [3], the solubility entry is “ameliorated”.

For the compound `CN(C)CCn1cc(-c2cnc3cnc(NC(=O)NC4CCCC4)nc3c2)cn1` [32m, 1-Cyclopentyl-3-(7-(1-(2-(dimethylamino)ethyl)-1H-pyrazol-4-yl)pyrido[3,2-d]pyrimidin-2-yl) urea], the inhibition at 0.1 µM in data set [2] was determined as 41%; in data set [4] it was 8.4%. Also, in data set [3], the solubility entry is “ameliorated”.

The term AUC(0-inf) denotes the area under the concentration-time curve extrapolated to infinity. A higher AUC(0-inf) goes with more exposure. Broadly, the AUC(0-t) is the area under the concentration-time curve up to a stated or last time point. Read a low AUC(0-t) as less exposure. A word on the Cmax: it is the highest concentration seen after dosing. One may read the clearance as a measure of how efficiently the substance is removed, as volume per time. Lower therefore signals a low capacity for elimination. The half-life is how long it takes for the measured level to halve. A lower half-life goes with fast loss. The term bioavailability denotes dose-corrected exposure relative to a reference, in per cent. As usually defined, the microsomal CLint is the rate of metabolic loss divided by the concentration. Low values mean greater metabolic stability, high ones faster metabolism. Regarding `O=C(Nc1ncc2ncc(-c3cn[nH]c3)cc2n1)NC1CCCC1` [32d, 1-(7-(1H-pyrazol-4-yl)pyrido[3,2-d]pyrimidin-2-yl)-3-cyclopentylurea], in data set [6], the “body weight of nude mice during treatment” value is “no observed body weight loss”. Besides, the “TGI (tumor growth inhibitory rate)” value in data set [6] (nude mice, combination 2.5 mg/kg + 0.5 mg/kg) turned out to be 51%. In data set [7] (setting [9]), this compound gave an AUC(0-inf) of 379 ng·h/mL, an AUC(0-t) of 368 ng·h/mL, a Cmax of 1310 ng/mL and a clearance of 44.8 mL/min/kg. In data set [7] (setting [9]), the half-life is 2.32 h and the MRT last came out at 0.99 h. For the same compound, the Vd in data set [7] (male, Sprague-Dawley, rat, plasma, iv, i.v. 1 mg/kg, read-out: Vz) stood at 9.12 L/kg. Besides, the bioavailability in data set [7] (male, Sprague-Dawley, rat, plasma, oral, p.o. 10 mg/kg vs i.v. 1 mg/kg, read-out: oral bioavailability (F)) was determined as 9.37%. Also, in data set [7] (setting [10]), the AUC(0-inf) amounted to 355 ng·h/mL, the AUC(0-t) was 192 ng·h/mL, the Cmax came out at 129 ng/mL and the half-life was 2.65 h. Moreover, the MRT last in data set [7] (setting [10]) is 2.93 h. In data set [7] (p.o. 10 mg/kg), this compound came in with a CL of 727.9 mL/min/kg and a Vz of 244.74 L/kg. The compound also gave an IC50 in data set [1] of 726 nM. Also, in data set [2], the IC50 is 59 nM and the inhibition at 0.1 µM turned out to be 51.4%. In data set [4], the IC50 is 73 nM and the inhibition at 0.1 µM was found to be 49.3%. Moreover, in data set [5], the IC50 was 1490 nM. Further, in data set [8] (90 ng/mL), the K is 0.004 min⁻¹. Further, in data set [8], the half-life at 90 ng/mL was 2.89 h and the microsomal CLint at 90 ng/mL amounted to 16 µL/min/mg.
